These are literature values, as cited in US20230113836A1, “NEW CONJUGATES OF PEPTIDES AND POLYSACCHARIDE” (ENLITISA (SHANGHAI) PHARMACEUTICAL CO., LTD., priority 2019, published 2023).

The data set concerns Drosophila model organism. Conditions: Foureman et al., 1994.

Regarding `C(CCOCC1CO1)COCC1CO1` (stereo not shown) [BDDE, 1,4-butanediol diglycidyl ether], the Mutagenicity result is recorded as “mutagenic”.
